Results taken from publication PMC9032987, “Cytotoxic Alkylynols of the Sponge Cribrochalina vasculum: Structure, Synthetic Analogs and SAR Studies” (Marine Drugs, 2022).

Assays:
Format in all cases: cell-based, human
[1] = test system: WI-38 diploid lung fibroblasts; assay: MTT cytotoxicity assay in diploid lung fibroblasts WI-38; settings: for IC50: Homo sapiens, WI-38, 72 h, MTT, 72 h post addition, confluent cells, estimated from cell viability curve
Procedure: (§1) Cytotoxicity structure-activity relationship analyses of compounds in NSCLC tumor cells and fibroblasts. Stock solutions (10 mg/mL) of the compounds to be tested were made in DMSO and further diluted with cell culture media prior to structure-activity relationship (SAR) screening as earlier described. To assess anti-tumor activity, the large cell lung carcinoma cell line NSCLC U-1810 (kind gift from Uppsala University) and diploid lung fibroblasts WI-38 [30] were used. U-1810 cells were propagated in RPMI-1640 medium (Sigma-Aldrich, St. Louis, […], USA) supplemented with FBS (10% HyClone) and L-glutamine (2 mmol/L, Invitrogen) while WI-38 fibroblasts were cultured in Eagle’s Minimum Essential Medium (Sigma-Aldrich) with 15% FBS and L-glutamine. For SAR assessment the cytotoxic assay 3-(4,5-dimethylthiazol-2-yl)-2,5 diphenyltetrazolium bromide (MTT) was applied. Profiling of U-1810 cells was carried out at 80% confluency (obtained by seeding 5000 cells/well in a 96-well plate for 24 h prior to treatment) and of WI-38 at 100% confluency (obtained by seeding 18,000 cells/well in a 96-well plate for 24 h prior to compound addition), the later to mimic the behavior of fibroblasts in the human body where they are non-dividing. For SAR evaluation, different concentrations of the compounds were added to fresh media while untreated cells were treated with DMSO corresponding to the amount applied when testing the highest concentration of the different compounds. The cytotoxicity of the compounds was assessed at 72 h post addition to cells by adding MTT solution (0.5 mg/mL, Sigma-Aldrich, 4 h at 37 °C) and dissolving the resulting formazan crystals in an SDS-containing solution (10% SDS and 0.01 mol/L HCl). Absorbance was quantified at 595 nm and the compound-induced cytotoxicity was calculated relative to that observed in DMSO-treated cells. The IC50 values were deduced from survival plots drawn in Graph Pad PRISM software vers.6 and for some of the compounds extrapolated as indicated in footnotes to Table 1.

NSCLC U-1810 cells = assay: MTT cytotoxicity assay in NSCLC U-1810 cells; settings: for IC50: U-1810, 72 h, MTT, 72 h post addition, estimated from cell viability curve; for viability at 162 µM: U-1810, at 162 µM
Procedure: as §1

[2] = MTT cytotoxicity assay in diploid lung fibroblasts WI-38; settings: human, WI-38 diploid lung fibroblasts, 72 h, read-out: cell viability
Procedure: as §1

[3] = calculated at IC50 (WI-38 IC50 / U-1810 IC50)
[4] = calculated at IC50 of U-1810 and the highest dose applied in WI-38 (IC50 not reached)
[5] = Homo sapiens, 72 h, read-out: cell viability

| SMILES | IC50 [1] [µM] | IC50 (NSCLC U-1810 cells; Homo sapiens) [µM] | other results |
| --- | --- | --- | --- |
| C#CC(O)/C=C/CCCCCCCCCCCCCCC (racemic) [rac-18, rac-Icos-(4E)-en-1-yn-3-ol] | 8.3 | 1.2 | Selectivity NSCLC cells (U-1810) vs. diploid fibroblasts (WI-38) (NSCLC U-1810 cells; [3]): 6.9 |
| C#CC(O)/C=C/C=C/CCCCCCCCCCCCCCC (racemic) [rac-27, (4E,6E)-docosa-4,6-dien-1-yn-3-ol] | 70 | ~2.4 | cytotoxicity to WI-38 fibroblasts (in words) [1]: did not affect the viability |
| C#CC(O)CCCCCCCCC (racemic) [rac-31, Dodec-1-yn-3-ol] |  | 15 | cytotoxic activity in NSCLC U-1810 cells (in words) (NSCLC U-1810 cells): much lower toxicity |
| C#CC(O)CCCCCCCCCCCCCCC (racemic) [rac-32, Octadec-1-yn-3-ol] | 75 | 3 | Selectivity NSCLC cells (U-1810) vs. diploid fibroblasts (WI-38) (NSCLC U-1810 cells; [3]): 25 |
| C#CC(O)CCCCCCCCCCCCCCCCC (racemic) [rac-33, Icos-1-yn-3-ol] | > 170 | 2.8 | viability at 72 h, 170 µM ([2]; WI-38, at 170 µM): ~100% |
| C#CC(CCCCCCCCCCCCCCC)OS(=O)(=O)c1ccc(C)cc1 (racemic) [rac-35, Octadec-1-yn-3-yl 4-methylbenzenesulfonate] | > 119 | 23 | viability at 72 h, 119 µM ([2]; WI-38, at 119 µM): ~85%; Selectivity NSCLC cells (U-1810) vs. diploid fibroblasts (WI-38) (NSCLC U-1810 cells; [4]): >5.2 ^s |
| C#CC(Cl)CCCCCCCCCCCCCCC (racemic) [rac-36, 3-chlorooctadec-1-yne] | > 175 | 140 | viability at 72 h, 175 µM ([2]; WI-38, at 175 µM): ~75%; tumor selective cytotoxicity NSCLC vs WI-38 (in words) (NSCLC U-1810 cells): did not display any specific cytotoxicity; Selectivity NSCLC cells (U-1810) vs. diploid fibroblasts (WI-38) (NSCLC U-1810 cells; [4]): >1.3 ^u |
| C#CC(N)CCCCCCCCCCCCCCC (racemic) [rac-37, Octadec-1-yn-3-amine] | 34 | 29 | Selectivity NSCLC cells (U-1810) vs. diploid fibroblasts (WI-38) (NSCLC U-1810 cells; [3]): 1.2 |
| C#CC(CCCCCCCCCCCCCCC)OC (racemic) [rac-38, 3-Methoxyoctadec-1-yne] | > 179 | > 179 | viability at 72 h, 179 µM ([2]; WI-38, at 179 µM): ~77%; tumor selective cytotoxicity NSCLC vs WI-38 (in words) (NSCLC U-1810 cells): did not display any specific cytotoxicity; viability at 179 µM (NSCLC U-1810 cells; Homo sapiens, U-1810, at 179 µM, 72 h, read-out: cell viability): ~71% |
| C#CC(CCCCCCCCCCCCCCC)SC(C)=O (racemic) [rac-39, S-Octadec-1-yn-3-yl ethanethioate] | > 154 | 60 | viability at 72 h, 154 µM ([2]; WI-38, at 154 µM): ~85%; tumor selective cytotoxicity NSCLC vs WI-38 (in words) (NSCLC U-1810 cells): did not display any specific cytotoxicity |
| C#CC(S)CCCCCCCCCCCCCCC (racemic) [rac-40, Octadec-1-yne-3-thiol] | > 177 | > 177 | viability at 72 h, 177 µM ([2]; WI-38, at 177 µM): ~100%; tumor selective cytotoxicity NSCLC vs WI-38 (in words) (NSCLC U-1810 cells): did not display any specific cytotoxicity; viability at 177 µM (NSCLC U-1810 cells; Homo sapiens, U-1810, at 177 µM, 72 h, read-out: cell viability): ~100% |
| C#CC(C)(O)CCCCCCCCCCCCCCCC (racemic) [rac-41, 3-Methylnonadec-1-yn-3-ol] |  | > 162 | viability at 162 µM (NSCLC U-1810 cells; [5]): ~54% |
| CC#CC(O)CCCCCCCCCCCCCCCCC (racemic) [rac-42, Henicos-2-yn-4-ol] |  | > 162 | viability at 162 µM (NSCLC U-1810 cells; [5]): ~90% |
| C#CC(O)c1cccc(CCCCCCCCCCCCCC)c1 (racemic) [rac-45, 1-(3-tetradecylphenyl)prop-2-yn-1-ol] |  | ~152 | viability at 76 µM (NSCLC U-1810 cells; Homo sapiens, U-1810, at 76 µM, one experiment, read-out: cell viability): ~70% |
| C#CC(O)c1ccccc1CCCCCCCCCCCCCC (racemic) [rac-48, 1-(2-tetradecylphenyl)prop-2-yn-1-ol] |  | ~50 |  |
